Reference: US11498899B2, “Nitrone herbicides” (FMC Corporation, priority 2016, dated 2022)

What was measured:
[1] = tested on: barnyardgrass (Echinochloa crus-galli); test: Test B flooded paddy test, visual rating 0-100; conditions: Flood, 250 g ai/ha, applied to paddy water, rated after 13 to 15 days
kochia (Kochia scoparia) [2] = test: Test A postemergence, visual injury rating 0-100; type: in vivo; conditions: 0 to 100 scale
Excerpt: (§1) Seeds of plant species selected from barnyardgrass (Echinochloa crus-galli), kochia (Kochia scoparia), ragweed (common ragweed, Ambrosia elatior), ryegrass, Italian (Italian ryegrass, Lolium multiflorum), foxtail, giant (giant foxtail, Setaria faberii), foxtail, green (green foxtail, Setaria viridis), and pigweed (Amaranthus retroflexus) were planted into a blend of loam soil and sand and treated preemergence with a directed soil spray using test chemicals formulated in a non-phytotoxic solvent mixture which included a surfactant.
(§2) At the same time, plants selected from these weed species and also wheat (Triticum aestivum), corn (Zea mays), blackgrass (Alopecurus myosuroides), and galium (catchweed bedstraw, Galium aparine) were planted in pots containing the same blend of loam soil and sand and treated with postemergence applications of test chemicals formulated in the same manner. Plants ranged in height from 2 to 10 cm and were in the one- to two-leaf stage for the postemergence treatment. Treated plants and untreated controls were maintained in a greenhouse for approximately 10 days, after which time all treated plants were compared to untreated controls and visually evaluated for injury. […] A dash (-) response means no test result.

[3] = tested on: foxtail, giant (giant foxtail, Setaria faberii); test: Test A postemergence, visual injury rating 0-100; type: in vivo; conditions: 0 to 100 scale
Excerpt: as §1, §2

[4] = tested on: wheat (Triticum aestivum); test: Test A postemergence, visual injury rating 0-100; type: in vivo; conditions: 0 to 100 scale
Excerpt: as §1, §2

[5] = tested on: pigweed (Amaranthus retroflexus); test: Test A postemergence, visual injury rating 0-100; type: in vivo; conditions: 0 to 100 scale
Excerpt: as §1, §2

corn (Zea mays) = test: Test A postemergence, visual injury rating 0-100; type: in vivo; conditions: 0 to 100 scale
Excerpt: as §1, §2

[6] = tested on: blackgrass (Alopecurus myosuroides); test: Test A postemergence, visual injury rating 0-100; type: in vivo; conditions: 0 to 100 scale
Excerpt: as §1, §2

[7] = tested on: galium (catchweed bedstraw, Galium aparine); test: Test A postemergence, visual injury rating 0-100; type: in vivo; conditions: 0 to 100 scale
Excerpt: as §1, §2

[8] = tested on: ragweed (common ragweed, Ambrosia elatior); test: Test A postemergence, visual injury rating 0-100; type: in vivo; conditions: 0 to 100 scale
Excerpt: as §1, §2

[9] = tested on: ryegrass, Italian (Italian ryegrass, Lolium multiflorum); test: Test A postemergence, visual injury rating 0-100; type: in vivo; conditions: 0 to 100 scale
Excerpt: as §1, §2

[10] = tested on: barnyardgrass (Echinochloa crus-galli); test: Test A postemergence, visual injury rating 0-100; type: in vivo; conditions: 0 to 100 scale
Excerpt: as §1, §2

kochia (Kochia scoparia) [11] = test: Test A preemergence, visual injury rating 0-100; type: in vivo
Excerpt: as §1, §2

[12] = tested on: foxtail, giant (giant foxtail, Setaria faberii); test: Test A preemergence, visual injury rating 0-100; type: in vivo
Excerpt: as §1, §2

[13] = tested on: pigweed (Amaranthus retroflexus); test: Test A preemergence, visual injury rating 0-100; type: in vivo
Excerpt: as §1, §2

[14] = tested on: ragweed (common ragweed, Ambrosia elatior); test: Test A preemergence, visual injury rating 0-100; type: in vivo
Excerpt: as §1, §2

[15] = tested on: ryegrass, Italian (Italian ryegrass, Lolium multiflorum); test: Test A preemergence, visual injury rating 0-100; type: in vivo
Excerpt: as §1, §2

[16] = tested on: barnyardgrass (Echinochloa crus-galli); test: Test A preemergence, visual injury rating 0-100 (0 no effect, 100 complete control); type: in vivo
Excerpt: as §1, §2

rice (Oryza sativa) = test: Test B flooded paddy test, visual rating 0-100 (0 no effect, 100 complete control); conditions: Flood, 250 g ai/ha, applied to paddy water, rated after 13 to 15 days
[17] = tested on: ducksalad (Heteranthera limosa); test: Test B flooded paddy test, visual rating 0-100; conditions: Flood, 250 g ai/ha, applied to paddy water, rated after 13 to 15 days

SMILES | Barnyardgrass plant response rating (0 to 100 scale) [1] | Kochia plant response rating (kochia (Kochia scoparia) [2]; 125 g ai/ha) | Kochia plant response rating (kochia (Kochia scoparia) [2]; 500 g ai/ha) | Foxtail, Giant plant response rating ([3]; 125 g ai/ha) | Foxtail, Giant plant response rating ([3]; 500 g ai/ha) | Wheat plant response rating ([4]; 125 g ai/ha) | Wheat plant response rating ([4]; 500 g ai/ha) | Pigweed plant response rating ([5]; 125 g ai/ha) | Pigweed plant response rating ([5]; 500 g ai/ha) | Corn plant response rating (corn (Zea mays); 125 g ai/ha) | Corn plant response rating (corn (Zea mays); 500 g ai/ha) | Blackgrass plant response rating ([6]; 125 g ai/ha) | Blackgrass plant response rating ([6]; 500 g ai/ha) | Galium plant response rating ([7]; 125 g ai/ha) | Galium plant response rating ([7]; 500 g ai/ha) | Ragweed plant response rating ([8]; 125 g ai/ha) | Ragweed plant response rating ([8]; 500 g ai/ha) | Ryegrass, Italian plant response rating ([9]; 125 g ai/ha) | Ryegrass, Italian plant response rating ([9]; 500 g ai/ha) | Barnyardgrass plant response rating ([10]; 125 g ai/ha) | other results
CC1=[N+]([O-])C(C(=O)Nc2cccc(F)c2F)C(c2ccc(Cl)c(C(F)(F)F)c2)C1 (racemic) [Compound 104] | 40 | 50 | 70 | 20 | 80 | 10 | 50 | 30 | 70 | 70 | 60 | 70 | 70 | 30 | 70 | 20 | 70 | 20 | 70 | 60 | Barnyardgrass plant response rating ([10]; 500 g ai/ha): 80; Kochia plant response rating (0 to 100 scale) (kochia (Kochia scoparia) [11]; 125 g ai/ha): 30; Kochia plant response rating (0 to 100 scale) (kochia (Kochia scoparia) [11]; 500 g ai/ha): 70; Foxtail, Giant plant response rating (0 to 100 scale) ([12]; 125 g ai/ha): 90; Foxtail, Giant plant response rating (0 to 100 scale) ([12]; 500 g ai/ha): 90; Pigweed plant response rating (0 to 100 scale) ([13]; 125 g ai/ha): 10; Pigweed plant response rating (0 to 100 scale) ([13]; 500 g ai/ha): 80; Ragweed plant response rating (0 to 100 scale) ([14]; 125 g ai/ha): 20; Ragweed plant response rating (0 to 100 scale) ([14]; 500 g ai/ha): 60; Ryegrass, Italian plant response rating (0 to 100 scale) ([15]; 500 g ai/ha): 90; Barnyardgrass plant response rating (0 to 100 scale) ([16]; 125 g ai/ha): 80; Barnyardgrass plant response rating (0 to 100 scale) ([16]; 500 g ai/ha): 90; Rice plant response rating (0 to 100 scale) (rice (Oryza sativa)): 0; Ducksalad plant response rating (0 to 100 scale) [17]: 40
CC1=[N+]([O-])C(C(=O)Nc2cccc(F)c2F)C(c2cccc(Oc3ccc(Cl)cn3)c2)C1 (racemic) [Compound 56] | 25 | 10 | 20 | 40 | 40 | 20 | 40 | 0 | 30 | 0 | 40 | 70 | 80 | 30 | 50 | 0 | 20 | 50 | 80 | 20 | Barnyardgrass plant response rating ([10]; 500 g ai/ha): 60; Kochia plant response rating (0 to 100 scale) (kochia (Kochia scoparia) [11]; 125 g ai/ha): 0; Kochia plant response rating (0 to 100 scale) (kochia (Kochia scoparia) [11]; 500 g ai/ha): 0; Foxtail, Giant plant response rating (0 to 100 scale) ([12]; 125 g ai/ha): 60; Foxtail, Giant plant response rating (0 to 100 scale) ([12]; 500 g ai/ha): 90; Pigweed plant response rating (0 to 100 scale) ([13]; 125 g ai/ha): 0; Pigweed plant response rating (0 to 100 scale) ([13]; 500 g ai/ha): 0; Ragweed plant response rating (0 to 100 scale) ([14]; 125 g ai/ha): 0; Ragweed plant response rating (0 to 100 scale) ([14]; 500 g ai/ha): 0; Ryegrass, Italian plant response rating (0 to 100 scale) ([15]; 125 g ai/ha): 60; Ryegrass, Italian plant response rating (0 to 100 scale) ([15]; 500 g ai/ha): 70; Barnyardgrass plant response rating (0 to 100 scale) ([16]; 125 g ai/ha): 10; Barnyardgrass plant response rating (0 to 100 scale) ([16]; 500 g ai/ha): 90; Rice plant response rating (0 to 100 scale) (rice (Oryza sativa)): 0; Ducksalad plant response rating (0 to 100 scale) [17]: 40
CC1=[N+]([O-])C(C(=O)Nc2cccc(F)c2F)C(c2cccc(C)n2)C1 (racemic) [Compound 49] | 0 | 0 | 0 | 0 | 0 | 0 | 0 | 0 | 0 | 0 | 0 | 0 | 0 | 0 | 0 | 20 | 20 | 0 | 30 | 0 | Barnyardgrass plant response rating ([10]; 500 g ai/ha): 0; Kochia plant response rating (0 to 100 scale) (kochia (Kochia scoparia) [11]; 125 g ai/ha): 0; Kochia plant response rating (0 to 100 scale) (kochia (Kochia scoparia) [11]; 500 g ai/ha): 0; Foxtail, Giant plant response rating (0 to 100 scale) ([12]; 125 g ai/ha): 0; Foxtail, Giant plant response rating ([12]; 500 g ai/ha, 0 to 100 scale): 40; Pigweed plant response rating (0 to 100 scale) ([13]; 125 g ai/ha): 0; Pigweed plant response rating (0 to 100 scale) ([13]; 500 g ai/ha): 0; Ragweed plant response rating (0 to 100 scale) ([14]; 125 g ai/ha): 0; Ragweed plant response rating (0 to 100 scale) ([14]; 500 g ai/ha): 0; Ryegrass, Italian plant response rating (0 to 100 scale) ([15]; 125 g ai/ha): 0; Ryegrass, Italian plant response rating (0 to 100 scale) ([15]; 500 g ai/ha): 20; Barnyardgrass plant response rating (0 to 100 scale) ([16]; 125 g ai/ha): 10; Barnyardgrass plant response rating ([16]; 500 g ai/ha, 0 to 100 scale): 20; Rice plant response rating (0 to 100 scale) (rice (Oryza sativa)): 0; Ducksalad plant response rating (0 to 100 scale) [17]: 0
